Results: ChEMBL document CHEMBL4024717, “Anthranilamide-based 2-phenylcyclopropane-1-carboxamides, 1,1'-biphenyl-4-carboxamides and 1,1'-biphenyl-2-carboxamides: Synthesis biological evaluation and mechanism of action” (Eur J Med Chem, 2017)
Values belong to the compound of their own block, whether it stands above or below them. The source made the active and inactive calls. The rule behind the calls is not given here.

What was measured:
K562 [1] = assay: Growth inhibition of human K562 cells at 10 uM after 24 hrs by MTT assay relative to control; format: functional; settings: K562, 24 h, read-out: GI
K562 [2] = assay: Cytotoxicity against human K562 cells after 48 hrs by MTT assay; format: functional, cell-based; settings: K562, 48 h
K562 [3] = assay: Induction of reactive oxygen species generation in human K562 cells at 0.75 to 2.5 uM after 5 to 24 hrs by H2DCFDA staining based fluorescence microscopic analysis; format: functional, cell-based
K562 [4] = assay: Cytotoxicity against human K562 cells after 24 hrs by MTT assay; format: functional, cell-based; settings: K562, 24 h
HT-29 = assay: Cytotoxicity against human HT-29 cells after 24 hrs by MTT assay; format: functional, cell-based; settings: HT-29, 24 h
MDA-MB-231 = assay: Cytotoxicity against human MDA-MB-231 cells after 24 hrs by MTT assay; format: functional, cell-based; settings: MDA-MB-231, 24 h
16HBE14o- = assay: Cytotoxicity against human 16HBE cells after 24 hrs by MTT assay; format: cell-based
[5] = Selectivity index, ratio of IC50 for human 16HBE cells to IC50 for human K562 cells; format: functional
[6] = Selectivity index, ratio of IC50 for human 16HBE cells to IC50 for human HT-29 cells; format: functional
[7] = Selectivity index, ratio of IC50 for human 16HBE cells to IC50 for human MDA-MB-231 cells; format: functional
K562 [8] = assay: Induction of morphological changes in human K562 cells assessed as reduction in cell number at 0.75 to 2.5 uM after 24 hrs by light microscopic method; format: functional, cell-based
K562 [9] = assay: Induction of morphological changes in human K562 cells assessed as reduction in cell volume at 0.75 to 2.5 uM after 24 hrs by light microscopic method; format: functional, cell-based
K562 [10] = assay: Induction of morphological changes in human K562 cells assessed as appearance of shrunken cytoplasm at 0.75 to 2.5 uM after 24 hrs by light microscopic method; format: functional, cell-based
K562 [11] = assay: Induction of morphological changes in human K562 cells assessed as cellular fragmentation at 0.75 to 2.5 uM after 48 hrs by light microscopic method; format: functional, cell-based
K562 [12] = assay: Cell cycle arrest in human K562 cells assessed as accumulation at sub G0/G1 phase at 750 nM after 24 hrs by propidium iodide staining based flow cytometry (reference value: 3.1%); format: functional
K562 [13] = assay: Cell cycle arrest in human K562 cells assessed as accumulation at G0/G1 phase at 750 nM after 24 hrs by propidium iodide staining based flow cytometry (reference value: 68.8%); format: functional
K562 [14] = assay: Cell cycle arrest in human K562 cells assessed as accumulation at G2/M phase at 750 nM after 24 hrs by propidium iodide staining based flow cytometry (reference value: 13.3%); format: functional
K562 [15] = assay: Cell cycle arrest in human K562 cells assessed as accumulation at sub G0/G1 phase at 750 nM after 48 hrs by propidium iodide staining based flow cytometry (reference value: 1.1%); format: functional
K562 [16] = assay: Cell cycle arrest in human K562 cells assessed as accumulation at G0/G1 phase at 750 nM after 48 hrs by propidium iodide staining based flow cytometry (reference value: 67.4%); format: functional
K562 [17] = assay: Cell cycle arrest in human K562 cells assessed as accumulation at G2/M phase at 750 nM after 48 hrs by propidium iodide staining based flow cytometry (reference value: 17.7%); format: functional
K562 [18] = assay: Cell cycle arrest in human K562 cells assessed as accumulation at sub G0/G1 phase at 2.5 uM after 24 hrs by propidium iodide staining based flow cytometry (reference value: 3.1%); format: functional
K562 [19] = assay: Cell cycle arrest in human K562 cells assessed as accumulation at G0/G1 phase at 2.5 uM after 24 hrs by propidium iodide staining based flow cytometry (reference value: 68.8%); format: functional
K562 [20] = assay: Cell cycle arrest in human K562 cells assessed as accumulation at G2/M phase at 2.5 uM after 24 hrs by propidium iodide staining based flow cytometry (reference value: 13.3%); format: functional
K562 [21] = assay: Cell cycle arrest in human K562 cells assessed as accumulation at sub G0/G1 phase at 2.5 uM after 48 hrs by propidium iodide staining based flow cytometry (reference value: 1.1%); format: functional
K562 [22] = assay: Cell cycle arrest in human K562 cells assessed as accumulation at G0/G1 phase at 2.5 uM after 48 hrs by propidium iodide staining based flow cytometry (reference value: 67.4%); format: functional
K562 [23] = assay: Cell cycle arrest in human K562 cells assessed as accumulation at G2/M phase at 2.5 uM after 48 hrs by propidium iodide staining based flow cytometry (reference value: 17.7%); format: functional
[24] = target: Serine-protein kinase ATM (Homo sapiens) (UniProt Q13315); assay: Activation of ATM phosphorylation in human K562 cells assessed as ratio of phosphorylated ATM to beta-tubulin level at 750 nM after 24 hrs by Western blot analysis (reference value: 0.2); format: cell-based
Serine-protein kinase ATM (Homo sapiens), sequence (Q13315 whole entry): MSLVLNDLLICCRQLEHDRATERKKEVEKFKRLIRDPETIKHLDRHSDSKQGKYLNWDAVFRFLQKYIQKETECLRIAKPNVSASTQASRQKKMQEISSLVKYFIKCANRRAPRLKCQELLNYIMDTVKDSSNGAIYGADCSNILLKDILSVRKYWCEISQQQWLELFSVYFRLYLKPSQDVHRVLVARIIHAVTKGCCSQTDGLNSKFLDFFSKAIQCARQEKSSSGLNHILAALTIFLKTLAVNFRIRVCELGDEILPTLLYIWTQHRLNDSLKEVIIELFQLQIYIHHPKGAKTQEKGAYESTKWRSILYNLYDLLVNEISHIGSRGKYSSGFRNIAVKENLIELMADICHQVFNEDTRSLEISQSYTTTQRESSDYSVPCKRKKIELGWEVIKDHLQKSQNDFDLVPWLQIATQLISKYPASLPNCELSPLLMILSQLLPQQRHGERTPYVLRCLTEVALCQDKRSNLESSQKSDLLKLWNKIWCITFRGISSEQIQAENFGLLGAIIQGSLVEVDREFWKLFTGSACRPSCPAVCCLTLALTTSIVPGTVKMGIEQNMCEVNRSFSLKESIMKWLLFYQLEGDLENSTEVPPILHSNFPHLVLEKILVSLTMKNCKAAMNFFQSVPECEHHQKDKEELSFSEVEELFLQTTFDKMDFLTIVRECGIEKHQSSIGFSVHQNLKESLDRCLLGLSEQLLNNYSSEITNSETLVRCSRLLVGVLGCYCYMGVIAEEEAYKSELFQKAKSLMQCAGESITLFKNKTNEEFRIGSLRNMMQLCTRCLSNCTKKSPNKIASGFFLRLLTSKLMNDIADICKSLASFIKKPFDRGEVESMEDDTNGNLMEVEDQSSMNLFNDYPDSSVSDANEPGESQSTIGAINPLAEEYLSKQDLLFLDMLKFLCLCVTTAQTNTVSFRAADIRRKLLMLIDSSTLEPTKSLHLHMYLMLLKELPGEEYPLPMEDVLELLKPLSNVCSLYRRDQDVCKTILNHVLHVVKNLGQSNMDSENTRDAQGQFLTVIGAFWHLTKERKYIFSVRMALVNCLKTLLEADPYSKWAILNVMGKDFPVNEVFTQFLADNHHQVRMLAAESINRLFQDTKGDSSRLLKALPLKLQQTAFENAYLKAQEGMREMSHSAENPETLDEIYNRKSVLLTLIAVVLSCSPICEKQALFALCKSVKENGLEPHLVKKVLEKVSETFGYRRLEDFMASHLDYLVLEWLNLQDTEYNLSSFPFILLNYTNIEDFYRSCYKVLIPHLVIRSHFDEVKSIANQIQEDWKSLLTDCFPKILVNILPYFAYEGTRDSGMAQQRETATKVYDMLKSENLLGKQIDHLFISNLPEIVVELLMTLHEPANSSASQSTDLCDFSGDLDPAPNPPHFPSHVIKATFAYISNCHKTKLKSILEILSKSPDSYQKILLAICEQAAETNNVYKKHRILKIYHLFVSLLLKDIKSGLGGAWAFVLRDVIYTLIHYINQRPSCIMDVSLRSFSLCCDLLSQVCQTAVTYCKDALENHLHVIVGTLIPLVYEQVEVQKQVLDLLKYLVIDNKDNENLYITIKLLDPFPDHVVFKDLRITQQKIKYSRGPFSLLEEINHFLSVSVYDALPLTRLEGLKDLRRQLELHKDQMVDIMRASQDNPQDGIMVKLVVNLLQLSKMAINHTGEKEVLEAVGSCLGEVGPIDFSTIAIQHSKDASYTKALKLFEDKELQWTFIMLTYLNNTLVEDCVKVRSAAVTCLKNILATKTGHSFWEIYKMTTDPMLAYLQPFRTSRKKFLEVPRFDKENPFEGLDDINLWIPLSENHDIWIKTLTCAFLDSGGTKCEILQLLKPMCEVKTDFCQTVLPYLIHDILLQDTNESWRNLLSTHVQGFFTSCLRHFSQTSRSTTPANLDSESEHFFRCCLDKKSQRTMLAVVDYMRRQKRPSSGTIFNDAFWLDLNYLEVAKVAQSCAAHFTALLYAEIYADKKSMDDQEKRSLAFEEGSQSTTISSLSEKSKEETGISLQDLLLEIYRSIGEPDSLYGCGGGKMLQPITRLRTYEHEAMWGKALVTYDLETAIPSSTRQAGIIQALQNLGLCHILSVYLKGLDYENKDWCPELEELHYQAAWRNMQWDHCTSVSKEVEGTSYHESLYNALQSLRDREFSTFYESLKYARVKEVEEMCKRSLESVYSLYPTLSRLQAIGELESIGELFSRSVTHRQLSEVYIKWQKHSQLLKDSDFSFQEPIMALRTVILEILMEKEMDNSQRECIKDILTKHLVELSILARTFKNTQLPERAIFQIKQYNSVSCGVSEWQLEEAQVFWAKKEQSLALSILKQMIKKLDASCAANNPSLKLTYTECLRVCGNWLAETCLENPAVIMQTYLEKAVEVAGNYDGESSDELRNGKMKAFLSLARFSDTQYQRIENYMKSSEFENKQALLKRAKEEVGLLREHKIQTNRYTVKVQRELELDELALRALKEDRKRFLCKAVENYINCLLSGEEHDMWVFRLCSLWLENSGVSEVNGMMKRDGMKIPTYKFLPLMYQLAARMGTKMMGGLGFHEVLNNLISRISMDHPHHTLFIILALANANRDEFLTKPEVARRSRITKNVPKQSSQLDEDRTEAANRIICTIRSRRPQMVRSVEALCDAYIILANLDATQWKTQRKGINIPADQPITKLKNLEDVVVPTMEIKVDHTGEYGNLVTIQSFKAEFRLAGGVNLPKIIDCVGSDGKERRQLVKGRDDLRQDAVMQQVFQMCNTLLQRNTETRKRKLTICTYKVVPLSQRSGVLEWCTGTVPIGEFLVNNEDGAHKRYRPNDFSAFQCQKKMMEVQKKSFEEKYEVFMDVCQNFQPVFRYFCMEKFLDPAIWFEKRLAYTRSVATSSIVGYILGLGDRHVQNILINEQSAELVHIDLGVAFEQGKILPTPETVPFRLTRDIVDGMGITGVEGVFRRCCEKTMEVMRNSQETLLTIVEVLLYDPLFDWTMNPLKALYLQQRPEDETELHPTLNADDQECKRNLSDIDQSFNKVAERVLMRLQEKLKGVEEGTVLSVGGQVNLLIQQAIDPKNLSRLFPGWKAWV

[25] = target: Serine-protein kinase ATM (Homo sapiens) (UniProt Q13315); assay: Activation of ATM phosphorylation in human K562 cells assessed as ratio of phosphorylated ATM to beta-tubulin level at 2.5 uM after 24 hrs by Western blot analysis (reference value: 0.2); format: cell-based
[26] = target: Serine-protein kinase ATM (Homo sapiens) (UniProt Q13315); assay: Activation of ATM phosphorylation in human K562 cells assessed as ratio of phosphorylated ATM to beta-tubulin level at 750 nM after 48 hrs by Western blot analysis (reference value: 0.2); format: cell-based
[27] = target: Serine-protein kinase ATM (Homo sapiens) (UniProt Q13315); assay: Activation of ATM phosphorylation in human K562 cells assessed as ratio of phosphorylated ATM to beta-tubulin level at 2.5 uM after 48 hrs by Western blot analysis (reference value: 0.2); format: cell-based
[28] = target: Serine-protein kinase ATM (Homo sapiens) (UniProt Q13315); assay: Activation of ATM phosphorylation in human K562 cells assessed as ratio of phosphorylated H2AX at S139 to beta-tubulin level at 750 nM after 24 hrs by Western blot analysis (reference value: 1); format: cell-based
[29] = target: Serine-protein kinase ATM (Homo sapiens) (UniProt Q13315); assay: Activation of ATM phosphorylation in human K562 cells assessed as ratio of phosphorylated H2AX at S139 to beta-tubulin level at 2.5 uM after 24 hrs by Western blot analysis (reference value: 1); format: cell-based
[30] = target: Serine-protein kinase ATM (Homo sapiens) (UniProt Q13315); assay: Activation of ATM phosphorylation in human K562 cells assessed as ratio of phosphorylated H2AX at S139 to beta-tubulin level at 750 nM after 48 hrs by Western blot analysis (reference value: 0.8); format: cell-based
[31] = target: Serine-protein kinase ATM (Homo sapiens) (UniProt Q13315); assay: Activation of ATM phosphorylation in human K562 cells assessed as ratio of phosphorylated H2AX at S139 to beta-tubulin level at 2.5 uM after 48 hrs by Western blot analysis (reference value: 0.8); format: cell-based
K562 [32] = assay: Induction of apoptosis in human K562 cells assessed as cell shrinkage at 0.75 to 2.5 uM after 24 to 48 hrs by Hoechst 33342/DAPI staining based fluorescence microscopic analysis; format: functional
K562 [33] = assay: Induction of apoptosis in human K562 cells assessed as chromatin condensation at 0.75 to 2.5 uM after 24 to 48 hrs by Hoechst 33342/DAPI staining based fluorescence microscopic analysis; format: functional, cell-based
K562 [34] = assay: Induction of apoptosis in human K562 cells assessed as DNA fragmentation at 0.75 to 2.5 uM after 24 to 48 hrs by Hoechst 33342/DAPI staining based fluorescence microscopic analysis; format: functional, cell-based
K562 [35] = assay: Induction of apoptosis in human K562 cells assessed as ratio of procaspase-3 to beta actin level at 750 nM after 24 hrs by Western blot analysis (reference value: 1); format: functional
K562 [36] = assay: Induction of apoptosis in human K562 cells assessed as ratio of procaspase-3 to beta actin level at 2.5 uM after 24 hrs by Western blot analysis (reference value: 1); format: functional
K562 [37] = assay: Induction of apoptosis in human K562 cells assessed as ratio of procaspase-3 to beta actin level at 750 nM after 48 hrs by Western blot analysis (reference value: 0.9); format: functional
K562 [38] = assay: Induction of apoptosis in human K562 cells assessed as ratio of procaspase-3 to beta actin level at 2.5 uM after 48 hrs by Western blot analysis (reference value: 0.9); format: functional
K562 [39] = assay: Induction of reactive oxygen species generation in human K562 cells at 0.75 to 2.5 uM after 48 hrs by H2DCFDA staining based fluorescence microscopic analysis; format: functional, cell-based
[40] = target: T1, c-Jun N-terminal kinase, JNK (Homo sapiens) (UniProt P45983+P53779+P45984); assay: Induction of JNK phosphorylation in human K562 cells assessed as ratio of phosphorylated JNK to beta-tubulin at 750 nM after 24 hrs by Western blot analysis (reference value: 1); format: cell-based
[41] = target: T1, c-Jun N-terminal kinase, JNK (Homo sapiens); assay: Induction of JNK phosphorylation in human K562 cells assessed as ratio of phosphorylated JNK to beta-tubulin at 2.5 uM after 24 hrs by Western blot analysis (reference value: 1); format: cell-based
[42] = target: T1, c-Jun N-terminal kinase, JNK (Homo sapiens); assay: Induction of JNK phosphorylation in human K562 cells assessed as ratio of phosphorylated JNK to beta-tubulin at 750 nM after 48 hrs by Western blot analysis (reference value: 1); format: cell-based
[43] = target: T1, c-Jun N-terminal kinase, JNK (Homo sapiens); assay: Induction of JNK phosphorylation in human K562 cells assessed as ratio of phosphorylated JNK to beta-tubulin at 2.5 uM after 48 hrs by Western blot analysis (reference value: 1); format: cell-based

SMILES: NC(=O)c1ccccc1NC(=O)c1ccc(-c2ccccc2)cc1
inhibition of growth at 10 µM (K562 [1]): 21.6%

SMILES: COc1ccc(NC(=O)c2ccccc2-c2ccccc2)c(C(N)=O)c1
inhibition of growth at 10 µM (K562 [1]): 37%

SMILES: NC(=O)c1ccccc1NC(=O)c1ccccc1-c1ccccc1
inhibition of growth at 10 µM (K562 [1]): 44.6%

SMILES: COc1cc(NC(=O)c2ccccc2-c2ccccc2)c(C(N)=O)cc1OC
inhibition of growth at 10 µM (K562 [1]): 46%

SMILES: Cc1ccc(NC(=O)[C@@H]2C[C@H]2c2ccccc2)c(C(N)=O)c1
inhibition of growth at 10 µM (K562 [1]): 15%

SMILES: NC(=O)c1cc(I)ccc1NC(=O)c1ccc(-c2ccccc2)cc1
inhibition of growth at 10 µM (K562 [1]): 15% | IC50 (K562 [2]): 15 µM

SMILES: COc1cc(NC(=O)c2ccc(-c3ccccc3)cc2)c(C(N)=O)cc1OC
inhibition of growth at 10 µM (K562 [1]): 48%

Ratio [24]: 1 | Ratio [25]: 2.5 | Ratio [26]: 0.5 | Ratio [27]: 0.9 | Ratio [28]: 1.5 | Ratio [29]: 2.1 | Ratio [30]: 2.2 | Ratio [31]: 1.6 | Ratio [40]: 0.8 | Ratio [41]: 1.2 | Ratio [42]: 1.2 | Ratio [43]: 1.4
SMILES: NC(=O)c1cc(I)ccc1NC(=O)c1ccccc1-c1ccccc1
Activity (K562 [3]): inactive | inhibition of growth at 10 µM (K562 [1]): 85% | IC50 (K562 [4]): 0.5 µM | IC50 (HT-29): 10 µM | IC50 (MDA-MB-231): 10 µM | IC50 (16HBE14o-): 30 µM | Ratio IC50 [5]: 60 | Ratio IC50 [6]: 3 | Ratio IC50 [7]: 3 | IC50 (K562 [2]): 0.5 µM | Activity (K562 [8]): Active | Activity (K562 [9]): Active | Activity (K562 [10]): Active | Activity (K562 [11]): Active | Activity (K562 [12]): 2.7% | Activity (K562 [13]): 54.9% | Activity (K562 [14]): 37.1% | Activity (K562 [15]): 4% | Activity (K562 [16]): 48.6% | Activity (K562 [17]): 30.5% | Activity (K562 [18]): 2.2% | Activity (K562 [19]): 14.9% | Activity (K562 [20]): 74.6% | Activity (K562 [21]): 26.2% | Activity (K562 [22]): 50.5% | Activity (K562 [23]): 13.4% | Activity (K562 [32]): Active | Activity (K562 [33]): Active | Activity (K562 [34]): Active | Ratio (K562 [35]): 0.8 | Ratio (K562 [36]): 0.8 | Ratio (K562 [37]): 0.5 | Ratio (K562 [38]): 0.5 | Activity (K562 [39]): Active

SMILES: Cc1ccc(NC(=O)c2ccc(-c3ccccc3)cc2)c(C(N)=O)c1
inhibition of growth at 10 µM (K562 [1]): 39.7%
